Laboratory results reported in publication PMC10394516, “The pharmacokinetic profile of brensocatib and its effect on pharmacodynamic biomarkers including NE, PR3, and CatG in various rodent species” (Frontiers in Pharmacology, 2023).

Experiments:
Type in all cases: in vivo
NE [1] = assay: PD onset study, bone marrow NE activity, C57BL/6 mice; details: for Percent change from vehicle NE: bone marrow, 5 mg/kg BID oral
Description: A 14-day PD onset study was performed in female C57BL/6 mice dosed BID. Mice were dosed by oral gavage either with vehicle (0 mg/kg) or 5 mg/kg brensocatib (BID; 10 mg/kg/day) for 1, 4, 7, 10, or 14 consecutive days. Plasma was collected from animals during the first 24 h of dosing at 1, 2, 8, 9, 10, and 24 h post the initial dose. Note the 8- and 24-h plasma samples were prior to the afternoon dose and the second day dose (if applicable), respectively. Plasma was used for PK analysis via LC-MS/MS. On prescribed days, animals were sacrificed 16 h post final dose, and the hind bones (femurs and tibias) were collected at necropsy for bone marrow analysis of NSP activities by kinetic enzymatic assays.
(§1) For the mice, each animal had the femurs and tibias of both hind limbs harvested. For the rat, the femur and tibia from a single hind limb per animal was harvested. Bones were kept on wet ice until processing for bone marrow collection. In brief, bone cutters were used to cut the epiphysis (knobby ends) off the long bones to expose the bone marrow filled cavity. Each bone cavity was then flushed with 5 mL/bone (mouse) or 10 mL/bone (rat) of ice-cold RPMI media through a […] and collected in a 50-mL conical tube. Cells were spun down at 2,500 × g at 4°C for 5 min and the supernatant was aspirated. After which, bone marrow cells were lysed with 1X red blood cell (RBC) lysis buffer (Abcam, ab204733) to eliminate contaminating RBCs and washed with PBS to remove any residual RBC lysis buffer. The resulting white blood cells (WBC) were subsequently lysed with 1% (v/v) Triton X-100 in PBS. Lysates were added to 96-well plates and stored at −80°C until NSP analyses.
(§2) Bone marrow lysates prepared as described above were diluted and plated onto 96-well assay plates to quantify NSP activities as described previously ([Basso et al., 2022]). Briefly, peptide substrates for NE (N-Methoxysuccinyl-Ala-Ala-Pro-Val-7-amido-4-methylcoumarin; Sigma; St. Louis, MO; Excitation/Emission at 350/450 nm), PR3 ((7-Methoxycoumarin-4-yl)acetyl-lysyl-(picolinoyl)-Tyr-Asp-Ala-Lys-Gly-Asp-N-3-(2-4-dinitrophenyl)-2-3-diaminopropyonyl-NH2); GenScript; Piscataway, NJ; Excitation/Emission at 340/430 nm), and CatG (N-Succinyl-Ala-Ala-Pro-Phe p nitroanilide; Sigma; Absorbance at 405 nm) were added at a final assay concentration of 100 μM, 40 μM, and 200 μM, respectively, and either fluorescence or absorbance was quantified using a Synergy microplate reader (BioTek; Winooski, VT). The specific NSP activity in each sample was calculated as the total activity minus the activity in the presence of a specific NSP inhibitor (if used), including elastase inhibitor (Abcam) for NE, sivelestat (Abcam) for PR3, and cathepsin G inhibitor I (Cayman Chemical; Ann Arbor, MI) for CatG. NSP concentrations were interpolated based on their activities relative to the standard curves created using active human NE protein (Sigma), active human PR3 protein (Sigma), and active human CatG protein (Sigma), respectively. Due to unavailability of commercial mouse and/or rat NE, PR3, and CatG proteins, the corresponding human proteins were used instead since their catalytic ability is considered to be conserved across species. A portion of each cell lysate sample was retained for protein quantification using a Pierce™ BCA Protein Assay Kit (Thermo Fisher). The NSP activities were normalized for the cell lysate protein concentrations.
The Pierce™ BCA Protein Assay Kit was used to measure the total protein of the samples after lysis to allow for subsequent normalization. The manufacturer’s instructions for use were followed when performing this assay on a portion of the sample lysates which were diluted in PBS, the same diluent as used for preparation of the standard. Plates were read on the Biotek Synergy plate reader with Gen5 software.

PR3 [2] = assay: Bone marrow PR3 activity after repeated dosing, C57BL/6 mice; details: for Reduction of PR3 activity vs vehicle / Change From Vehicle Control (%) PR3: 7 days
Description: (§3) Briefly, animals were weighed and randomized into different treatment groups. In total, three different dosing levels of brensocatib were tested in each species and strain; each QD dosing level was equivalent to 1.5-times the matching daily BID dose. For BID dosing, the second daily dose was administered 8-h post the morning dose. C57BL/6 mice were dosed either BID or QD for 7 consecutive days at 0/0, 0.5/0.75, 2/3, and 20/30 mg/kg/day (BID/QD). BALB/c mice were dosed for 7 consecutive days at 0/0, 0.2/0.3, 2/3, and 20/30 mg/kg/day (BID/QD). SD rats were dosed for 9 consecutive days at 0/0, 0.2/0.3, 2/3, and 20/30 mg/kg/day (BID/QD). Wistar rats were dosed for 7 consecutive days at 0/0, 0.2/0.3, 2/3, and 20/30 mg/kg/day (BID/QD).
(§4) At the completion of the study, animals were sacrificed 16–24 h post their final dose. The hind limb bones (femurs and tibias) were collected at necropsy for bone marrow analysis of NSP activities by kinetic enzymatic assays ([Basso et al., 2022]). See section Quantification of Bone Marrow NSP Activities for details.
as §1, §2
(§5) The Pierce™ BCA Protein Assay Kit was used to measure the total protein of the samples after lysis to allow for subsequent normalization. […]

NE [3] = assay: Bone marrow NE activity after repeated dosing, BALB/c mice; details: for Reduction of NE activity vs vehicle / Change From Vehicle Control (%) NE: 7 days
Description: as §3, §4, §1, §2, §5

PR3 [4] = assay: Bone marrow PR3 activity after repeated dosing, Sprague Dawley rats; details: for Reduction of PR3 activity vs vehicle / Change From Vehicle Control (%) PR3: 9 days
Description: as §3, §4, §1, §2, §5

[5] = 5 mg/kg BID, curve fit with free min and max
[6] = BID highest dose (20 mg/kg/day)
[7] = highest dose level 20/30 (BID/QD) mg/kg/day
[8] = oral BID 2 mg/kg/day, 16 h post final dose
[9] = oral BID 20 mg/kg/day, 16 h post final dose
[10] = oral QD 3 mg/kg/day, 24 h post final dose
[11] = oral QD 30 mg/kg/day, 24 h post final dose

Cn1c(=O)oc2ccc(-c3ccc(C[C@@H](C#N)NC(=O)[C@@H]4CNCCCO4)cc3)cc21 [brensocatib]
Onset: Maximum reduction (plateau), NE (NE [1]; [5]): 80% | Onset: Time to reach 50% reduction, NE (NE [1]; [5]): 4.3 days | Onset: Time to reach max reduction, NE (NE [1]; [5]): 6.4 days | Percent change from vehicle NE (NE [1]; after 1 day of treatment): −28% (p = 0.0826) | Percent change from vehicle NE (NE [1]; after 4 days of treatment): −59% (p < 0.0001) | Percent change from vehicle NE (NE [1]; after 7 days of treatment): −83% (p < 0.0001) | Percent change from vehicle NE (NE [1]; after 10 days of treatment): −76% (p < 0.0001) | Percent change from vehicle NE (NE [1]; after 14 days of treatment): −82% (p < 0.0001) | Reduction of PR3 activity vs vehicle (PR3 [2]; [6]): 80% | Reduction of PR3 activity vs vehicle (PR3 [2]; QD highest dose (30 mg/kg/day)): 65% | Combined BID and QD percent reduction, PR3 (PR3 [2]; [7]): 71% | Change From Vehicle Control (%) PR3 (PR3 [2]; oral BID 0.5 mg/kg/day, 16 h post final dose): 9% (p = 0.8059) | Change From Vehicle Control (%) PR3 (PR3 [2]; [8]): −44% (p = 0.0041) | Change From Vehicle Control (%) PR3 (PR3 [2]; [9]): −80% (p < 0.0001) | Change From Vehicle Control (%) PR3 (PR3 [2]; oral QD 0.75 mg/kg/day, 24 h post final dose): +2% (p = 0.9977) | Change From Vehicle Control (%) PR3 (PR3 [2]; [10]): −46% (p = 0.0008) | Change From Vehicle Control (%) PR3 (PR3 [2]; [11]): −65% (p < 0.0001) | Reduction of NE activity vs vehicle (NE [3]; [6]): 79% | Reduction of NE activity vs vehicle (NE [3]; QD highest dose (30 mg/kg/day)): 46% | Combined BID and QD percentage reduction, NE (NE [3]; [7]): 62% | Change From Vehicle Control (%) NE (NE [3]; oral BID 0.2 mg/kg/day, 16 h post final dose): +26% (p = 0.4425) | Change From Vehicle Control (%) NE (NE [3]; [8]): −23% (p = 0.5256) | Change From Vehicle Control (%) NE (NE [3]; [9]): −79% (p = 0.0008) | Change From Vehicle Control (%) NE (NE [3]; oral QD 0.3 mg/kg/day, 24 h post final dose): −3% (p = 0.9990) | Change From Vehicle Control (%) NE (NE [3]; [10]): −16% (p = 0.8297) | Change From Vehicle Control (%) NE (NE [3]; [11]): −46% (p = 0.0959) | Reduction of PR3 activity vs vehicle (PR3 [4]; [6]): 68% | Reduction of PR3 activity vs vehicle (PR3 [4]; QD highest dose (30 mg/kg/day)): 72% | Combined BID and QD percent reduction, PR3 (PR3 [4]; [7]): 70% | Change From Vehicle Control (%) PR3 (PR3 [4]; oral BID 0.2 mg/kg/day): +23% (p = 0.8292) | Change From Vehicle Control (%) PR3 (PR3 [4]; oral BID 2 mg/kg/day): −31% (p = 0.6727) | Change From Vehicle Control (%) PR3 (PR3 [4]; oral BID 20 mg/kg/day): −68% (p = 0.0907) | Change From Vehicle Control (%) PR3 (PR3 [4]; oral QD 0.3 mg/kg/day): −34% (p = 0.4869) | Change From Vehicle Control (%) PR3 (PR3 [4]; oral QD 3 mg/kg/day): −59% (p = 0.0837) | Change From Vehicle Control (%) PR3 (PR3 [4]; oral QD 30 mg/kg/day): −72% (p = 0.0285)
